Measured values published in paper PMC4392110, “Atom-Atom-Path similarity and Sphere Exclusion clustering: tools for prioritizing fragment hits” (Journal of Cheminformatics, 2015).
pKd: −log10 of the molar value.

Target: MAP4K4 kinase (Homo sapiens, UniProt O95819)
Test: MAP4K4 fragment screen, KD of fragment hits
Type: binding
Settings: for pKd: fragment screening hits, read-out: MAP4K4 inact KD; for LE difference to the cluster seed: difference in LE to cluster seed (C02M01 or C12M01); for Ligand Efficiency: LE computed as 1.4*pKd/nHeavyAtoms
Text: Utilizing additional fragment collections, we expanded our previous ~2,500 compound screen of the MAP4K4 kinase by performing an additional screen of 8,000 compounds [28]. […] AAP similarity and DISE clustering were used to cluster the combined hit set fragments. The fragment hits were sorted according to their LE, followed by the cluster seed selection. The AAP similarity threshold in this step was 0.3. The remaining hits were assigned to the most similar cluster seed.

Sequence of MAP4K4 kinase (O95819 whole entry, the tested form may be a part): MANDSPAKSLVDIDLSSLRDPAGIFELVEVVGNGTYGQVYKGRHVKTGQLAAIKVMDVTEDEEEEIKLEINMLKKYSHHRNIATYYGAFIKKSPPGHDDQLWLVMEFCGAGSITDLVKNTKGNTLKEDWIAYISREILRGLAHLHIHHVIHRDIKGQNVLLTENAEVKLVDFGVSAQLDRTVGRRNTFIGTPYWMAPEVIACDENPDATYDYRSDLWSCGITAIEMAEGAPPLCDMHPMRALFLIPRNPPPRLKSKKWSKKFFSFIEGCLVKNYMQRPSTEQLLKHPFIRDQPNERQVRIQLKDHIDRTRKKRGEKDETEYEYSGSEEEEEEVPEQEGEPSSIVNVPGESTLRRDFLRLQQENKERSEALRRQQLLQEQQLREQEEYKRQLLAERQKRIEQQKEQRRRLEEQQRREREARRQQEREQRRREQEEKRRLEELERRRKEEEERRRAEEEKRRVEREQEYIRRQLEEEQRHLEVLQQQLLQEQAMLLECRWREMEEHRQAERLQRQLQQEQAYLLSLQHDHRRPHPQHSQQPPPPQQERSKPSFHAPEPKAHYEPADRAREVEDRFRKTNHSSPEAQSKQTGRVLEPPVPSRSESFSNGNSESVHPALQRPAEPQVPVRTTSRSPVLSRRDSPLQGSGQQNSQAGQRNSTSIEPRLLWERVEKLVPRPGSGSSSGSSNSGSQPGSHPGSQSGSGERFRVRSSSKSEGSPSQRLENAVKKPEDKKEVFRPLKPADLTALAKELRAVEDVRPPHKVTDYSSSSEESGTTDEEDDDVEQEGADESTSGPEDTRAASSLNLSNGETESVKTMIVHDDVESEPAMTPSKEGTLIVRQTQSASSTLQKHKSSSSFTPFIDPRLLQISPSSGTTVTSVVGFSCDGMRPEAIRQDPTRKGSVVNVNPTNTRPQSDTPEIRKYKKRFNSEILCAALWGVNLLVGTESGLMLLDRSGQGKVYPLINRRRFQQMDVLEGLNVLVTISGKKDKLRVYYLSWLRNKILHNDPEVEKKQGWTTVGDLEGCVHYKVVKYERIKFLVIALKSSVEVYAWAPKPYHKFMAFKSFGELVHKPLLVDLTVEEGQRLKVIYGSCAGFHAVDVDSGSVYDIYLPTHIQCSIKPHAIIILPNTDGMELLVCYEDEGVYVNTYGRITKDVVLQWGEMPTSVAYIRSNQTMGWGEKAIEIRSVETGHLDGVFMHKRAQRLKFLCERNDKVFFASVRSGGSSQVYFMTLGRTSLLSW

| SMILES | pKd | LE difference to the cluster seed | Ligand Efficiency |
| --- | --- | --- | --- |
| Nc1ncncc1-c1ccc(Cl)cc1 [C02M03] | 4.45 | 0.17 |  |
| Nc1ncnc(Cl)c1-c1ccccc1 [C02M04] | 3.44 |  |  |
| OCc1ccc(-c2cncnc2)cc1 [C02M05] | 3.30 |  |  |
| CCc1nc(N)nc(N)c1-c1ccc(Cl)cc1 [C02M06] | 3.03 |  |  |
| Nc1c(-c2ccccc2)nn2ccccc12 [C12M05] | 3.56 |  | 0.31 |

These reach a higher pKd. Values come first.

| pKd | LE difference to the cluster seed | Ligand Efficiency | SMILES |
| --- | --- | --- | --- |
| 6.26 |  |  | Nc1ncncc1-c1ccc(O)cc1 [C02M01] |
| 4.55 | 0.13 |  | Nc1ncncc1-c1ccccc1 [C02M02] |
| 5.47 |  | 0.5 | c1ccc(-c2n[nH]c3ccccc23)cc1 [C12M01] |
| 5.68 |  | 0.49 | Nc1n[nH]c2cc(-c3ccccc3)ccc12 [C12M02] |
| 4.77 | 0.09 | 0.41 | Nc1ccc2[nH]nc(-c3ccccc3)c2c1 [C12M03] |
